According to patent EP4603105A1, “PHARMACEUTICAL COMPOSITION CONTAINING CYCLIC COMPOUND HAVING SELECTIVE KRAS INHIBITORY EFFECT AGAINST HRAS AND NRAS” (CHUGAI SEIYAKU KABUSHIKI KAISHA, priority 2022, dated 2024):
Where a SMILES comes first, the peptide text is derived from it. Bridges are numbered along the chain shown (N, C = ends). [ ]: non-standard residue; d: D form. The star is where a group is joined. hPhe(3-Cl-4-CF3) = N[C@@H](CCc1ccc(C(F)(F)F)c(Cl)c1)C(=O)O; NPrPhe(4-CF3) = CCCN[C@@H](Cc1ccc(C(F)(F)F)cc1)C(=O)O; NMeGly(cPent) = CN[C@H](C(=O)O)C1CCCC1; NMeD = CN[C@@H](CC(=O)O)C(=O)O; NMeL = CN[C@@H](CC(C)C)C(=O)O; NMeAbu = CC[C@H](NC)C(=O)O; Morpholide = C1CN(*)CCO1; NMeA = CN[C@@H](C)C(=O)O; Ac4c = NC1(C(=O)O)CCC1; Sar = CNCC(=O)O

What was measured:
[1] = biological target: GDP-bound NRAS wild-type protein (Homo sapiens, UniProt P01111); assay: Binding to NRAS by surface plasmon resonance (SPR), KD and KD ratio to KRAS
Sequence of GDP-bound NRAS wild-type protein (P01111 whole entry): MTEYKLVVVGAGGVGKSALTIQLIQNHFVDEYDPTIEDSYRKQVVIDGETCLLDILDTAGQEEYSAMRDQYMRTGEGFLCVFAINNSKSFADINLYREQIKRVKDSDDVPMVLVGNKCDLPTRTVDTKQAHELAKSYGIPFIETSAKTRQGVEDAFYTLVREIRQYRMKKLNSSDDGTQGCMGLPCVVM
In short: (§1)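 Running buffer contained 10 µM GDP and 10 mM MgCl2 to keep RAS in the GDP state, with 4% DMSO at pH 7.4. Compounds were flowed at 100 µL/min in 75 s steps of rising concentration over captured biotin-Avi RAS at 30°C. Sensorgrams were fitted 1:1 for KD.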

[2] = biological target: HRAS wild-type protein (Homo sapiens, UniProt P01112); assay: Binding to HRAS by surface plasmon resonance (SPR), KD and KD ratio to KRAS
Sequence of HRAS wild-type protein (P01112 whole entry): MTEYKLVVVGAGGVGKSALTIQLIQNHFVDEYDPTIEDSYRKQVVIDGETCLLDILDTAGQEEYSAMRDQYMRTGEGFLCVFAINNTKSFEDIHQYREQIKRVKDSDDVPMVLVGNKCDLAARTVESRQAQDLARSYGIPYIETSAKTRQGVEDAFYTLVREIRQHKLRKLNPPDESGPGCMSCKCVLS
In short: as §1

[3] = test system: human lung cancer strain NCI-H441; type: cell-based
In short: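 Step one: dispense the test compound in serial DMSO dilutions. Step three: add the reagent and measure […].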

[4] = ratio of KD value for GDP-bound NRAS wild-type protein to KD value for KRAS (SPR)
[5] = ratio of KD value for HRAS wild-type protein to KD value for KRAS (SPR)
[6] = ratio of the KD value with respect to GDP-bound NRAS wild-type protein to the KD value with respect to KRAS
[7] = ratio of the KD value with respect to HRAS wild-type protein to the KD value with respect to KRAS

SMILES	NRAS /KRAS [1, 4]	HRAS /KRAS [2, 5]	IC50 [3] [nM]	NRAS /KRAS [1, 6]	HRAS /KRAS [2, 7]
CCC[C@H]1C(=O)N[C@@H]([C@@H](C)CC)C(=O)N(C)CC(=O)N(C)[C@H]2C/C=C\CCN(C2=O)[C@@H](Cc2ccc(C)cc2)C(=O)N(C)CC(=O)N[C@@H](CCc2ccc(C(F)(F)F)c(Cl)c2)C(=O)N2C[C@@H](C)C[C@H]2C(=O)NC2(CC(C)(C)C2)C(=O)N(C)[C@@H](C2CCCC2)C(=O)N(C)[C@H](C(=O)N(C)CC)CC(=O)N1C [PP1893]	A (a compound having 10 or more and less than 20 is denoted as A)	B (a compound having 3 or more and less than 10 is denoted as B)	18.5		
CCC[C@H]1C(=O)N[C@@H]([C@@H](C)CC)C(=O)N(C)CC(=O)N(C)[C@H]2C/C=C\CCN(C2=O)[C@@H](Cc2ccc(C)cc2)C(=O)N(C)CC(=O)N[C@@H](CCc2ccc(C(F)(F)F)c(Cl)c2)C(=O)N2C[C@H](OCC)C[C@H]2C(=O)NC2(CCC2)C(=O)N(C)[C@@H](C2CCCC2)C(=O)N(C)[C@H](C(=O)N(C)CC)CC(=O)N1C [PP1895]	A (a compound having 10 or more and less than 20 is denoted as A)	B (a compound having 3 or more and less than 10 is denoted as B)	15.6		
CCC[C@H]1C(=O)N[C@@H]([C@@H](C)CC)C(=O)N(C)CC(=O)N(C)[C@H]2C/C=C\CCN(C2=O)[C@@H](Cc2ccc(C)cc2)C(=O)N(C)CC(=O)N[C@@H](CCc2ccc(C(F)(F)F)c(Cl)c2)C(=O)N2C[C@H](OCC)C[C@H]2C(=O)NC2(CC(C)(C)C2)C(=O)N(C)[C@@H](C2CCCC2)C(=O)N(C)[C@H](C(=O)N(C)C)CC(=O)N1C [PP1896]	A (a compound having 10 or more and less than 20 is denoted as A)	B (a compound having 3 or more and less than 10 is denoted as B)	5.3		
CC[C@H](C)[C@@H]1NC(=O)[C@H](CC2CC2)N(C)C(=O)C[C@@H](C(=O)N(C)C)N(C)C(=O)[C@H](C2CCCC2)N(C)C(=O)C2(CC(C)(C)C2)NC(=O)[C@@H]2C[C@H](C)CN2C(=O)[C@H](CCc2ccc(C(F)(F)F)c(OC)c2)NC(=O)CN(C)C(=O)[C@H](Cc2ccc(C)cc2)N2CC/C=C\C[C@@H](C2=O)N(C)C(=O)CN(C)C1=O [PP1898]			6.3	B (a compound having 3 or more and less than 10 is denoted as B)	B (a compound having 3 or more and less than 10 is denoted as B)
CC[C@H](C)[C@@H]1NC(=O)[C@H](CC(C)C)N(C)C(=O)C[C@@H](C(=O)N(C)CC)N(C)C(=O)[C@H](C2CCCC2)N(C)C(=O)C2(CCC2)NC(=O)[C@@H]2C[C@H](C)CN2C(=O)[C@H](CCc2ccc(C(F)(F)F)c(OC)c2)NC(=O)CN(C)C(=O)[C@H](Cc2ccc(C)cc2)N2CC/C=C\C[C@@H](C2=O)N(C)C(=O)CN(C)C1=O [PP1904]			18.3	A (a compound having 10 or more and less than 20 is denoted as A)	B (a compound having 3 or more and less than 10 is denoted as B)
CC[C@H](C)[C@@H]1NC(=O)[C@H](CC(C)C)N(C)C(=O)C[C@@H](C(=O)N(C)CC)N(C)C(=O)[C@H](C2CCCC2)N(C)C(=O)C2(CC(C)(C)C2)NC(=O)[C@@H]2C[C@H](C)CN2C(=O)[C@H](CCc2ccc(C(F)(F)F)c(OC)c2)NC(=O)CN(C)C(=O)[C@H](Cc2ccc(C)cc2)N2CC/C=C\C[C@@H](C2=O)N(C)C(=O)CN(C)C1=O [PP1906]			10.8	A (a compound having 10 or more and less than 20 is denoted as A)	A (a compound having 10 or more and less than 20 is denoted as A)
CC[C@H](C)[C@@H]1NC(=O)[C@H](CC(C)C)N(C)C(=O)C[C@@H](C(=O)N(C)CC)N(C)C(=O)[C@H](C2CCCC2)N(C)C(=O)C2(CCC2)NC(=O)[C@@H]2C[C@@H](C)CN2C(=O)[C@H](CCc2ccc(C(F)(F)F)c(OC)c2)NC(=O)CN(C)C(=O)[C@H](Cc2ccc(C)cc2)N2CC/C=C\C[C@@H](C2=O)N(C)C(=O)CN(C)C1=O [PP1907]			23.6	AA (a compound having 20 or more is denoted as AA)	A (a compound having 10 or more and less than 20 is denoted as A)
CC[C@H](C)[C@@H]1NC(=O)[C@H](CC(F)F)N(C)C(=O)C[C@@H](C(=O)N(C)CC)N(C)C(=O)[C@H](C2CCCC2)N(C)C(=O)C2(CC(C)(C)C2)NC(=O)[C@@H]2C[C@H](C)CN2C(=O)[C@H](CCc2ccc(C(F)(F)F)c(Cl)c2)NC(=O)CN(C)C(=O)[C@H](Cc2ccc(C)cc2)N2CC/C=C\C[C@@H](C2=O)N(C)C(=O)CN(C)C1=O [PP1911]			11.7	A (a compound having 10 or more and less than 20 is denoted as A)	A (a compound having 10 or more and less than 20 is denoted as A)
CCO[C@@H]1C[C@H]2C(=O)NC3(CC(C)(C)C3)C(=O)N(CC)[C@@H](C3CCCC3)C(=O)N(C)[C@H](C(=O)N(C)C)CC(=O)N(C)[C@@H](CC)C(=O)N[C@@H]([C@@H](C)CC)C(=O)N(C)CC(=O)N(C)[C@H]3C/C=C\CCN(C3=O)[C@@H](Cc3ccc(C(F)(F)F)cc3)C(=O)N(C)CC(=O)N[C@@H](CCc3cc(F)c(C(F)(F)F)c(F)c3)C(=O)N2C1 [PP1913]			44	A (a compound having 10 or more and less than 20 is denoted as A)	A (a compound having 10 or more and less than 20 is denoted as A)
CCO[C@@H]1C[C@H]2C(=O)NC3(CC(C)(C)C3)C(=O)N(C)[C@@H](C3CCCC3)C(=O)N(C)[C@H](C(=O)N(C)C)CC(=O)N3CCCCC[C@H]3C(=O)N[C@@H]([C@@H](C)CC)C(=O)N(C)CC(=O)N(C)[C@H]3C/C=C\CCN(C3=O)[C@@H](Cc3ccc(C(F)(F)F)cc3)C(=O)N(C)CC(=O)N[C@@H](CCc3cc(F)c(C(F)(F)F)c(F)c3)C(=O)N2C1 [PP1915]			18.5	A (a compound having 10 or more and less than 20 is denoted as A)	A (a compound having 10 or more and less than 20 is denoted as A)
CCCN1C(=O)CN(C)C(=O)CN(C)C(=O)[C@H]([C@@H](C)CC)NC(=O)[C@H](CC(C)C)N(C)C(=O)C[C@@H](C(=O)N2CCOCC2)N(C)C(=O)[C@H](C2CCCC2)N(C)C(=O)C2(CCC2)NC(=O)[C@H](C)N(C)C(=O)[C@H](CCc2ccc(C(F)(F)F)c(Cl)c2)NC(=O)CN(C)C(=O)[C@@H]1Cc1ccc(C(F)(F)F)cc1 [PP1916] ([NMeL]I[Sar][Sar][NPrPhe(4-CF3)][Sar][hPhe(3-Cl-4-CF3)][NMeA][Ac4c][NMeGly(cPent)][NMeD]-Morpholide; lactam N-11)			16.8	B (a compound having 3 or more and less than 10 is denoted as B)	C (A compound having a KD ratio of 0.1 or more and less than 3 is denoted as C)
CCCN(C)C(=O)[C@@H]1CC(=O)N(C)[C@@H](CC(C)C)C(=O)N[C@@H]([C@@H](C)OC)C(=O)N(C)CC(=O)N(C)[C@H]2C/C=C\CCN(C2=O)[C@@H](Cc2ccc(C(F)(F)F)cc2)C(=O)N(C)CC(=O)N[C@@H](CCc2cc(F)c(C(F)(F)F)c(F)c2)C(=O)N2C[C@H](OCC)C[C@H]2C(=O)NC2(CC(C)(C)C2)C(=O)N(C)[C@@H](C2CCCC2)C(=O)N1C [PP1917]			22.5	A (a compound having 10 or more and less than 20 is denoted as A)	A (a compound having 10 or more and less than 20 is denoted as A)
CCCN1C(=O)CN(C)C(=O)CN(C)C(=O)[C@H]([C@@H](C)CC)NC(=O)[C@H](CC(C)C)N(C)C(=O)C[C@@H](C(=O)N2CCOCC2)N(C)C(=O)[C@H](C2CCCC2)N(C)C(=O)C2(CCC2)NC(=O)[C@H](CC)N(C)C(=O)[C@H](CCc2ccc(C(F)(F)F)c(Cl)c2)NC(=O)CN(C)C(=O)[C@@H]1Cc1ccc(C(F)(F)F)cc1 [PP1918] ([NMeL]I[Sar][Sar][NPrPhe(4-CF3)][Sar][hPhe(3-Cl-4-CF3)][NMeAbu][Ac4c][NMeGly(cPent)][NMeD]-Morpholide; lactam N-11)			32.8	B (a compound having 3 or more and less than 10 is denoted as B)	C (A compound having a KD ratio of 0.1 or more and less than 3 is denoted as C)
CCO[C@@H]1C[C@H]2C(=O)NC3(CC(C)(C)C3)C(=O)N(C)[C@@H](C3CCCC3)C(=O)N(C)[C@H](C(=O)N(C)CC)CC(=O)N(C)[C@@H](CC(C)C)C(=O)N[C@@H]([C@@H](C)OCC)C(=O)N(C)CC(=O)N(C)[C@H]3C/C=C\CCN(C3=O)[C@@H](Cc3ccc(C(F)(F)F)cc3)C(=O)N(C)CC(=O)N[C@@H](CCc3cc(F)c(C(F)(F)F)c(F)c3)C(=O)N2C1 [PP1919]			6.3	A (a compound having 10 or more and less than 20 is denoted as A)	A (a compound having 10 or more and less than 20 is denoted as A)
